Assay results reported in PubChem BioAssay AID1259407 (Chemical Carcinogenesis Research Information System (CCRIS), 2018).
The source made the active and inactive calls. How the calls were made is not given here.

Tested on: CCRIS mutagenicity, Ames/micronucleus/aberration tests
Test: CCRIS mutagenicity studies
[1] = Test System: AMES SALMONELLA TYPHIMURIUM, Strain/Indicator: TA98, Metabolic Activation: NONE, Method: STANDARD PLATE
[2] = Test System: AMES SALMONELLA TYPHIMURIUM, Strain/Indicator: TA100, Metabolic Activation: NONE, Method: STANDARD PLATE
[3] = Test System: AMES SALMONELLA TYPHIMURIUM, Strain/Indicator: TA100, Metabolic Activation: RAT, LIVER, S-9, AROCLOR 1254, Method: STANDARD PLATE

Which results are given for `O=C1NCCN1c1ncc([N+](=O)[O-])s1`?
mutagenic call (Test System: AMES SALMONELLA TYPHIMURIUM, Strain/Indicator: TA96(NR), Metabolic Activation: NONE, Method: STANDARD PLATE): inactive; negative; mutagenic call (Test System: AMES SALMONELLA TYPHIMURIUM, Strain/Indicator: TA96(NRB), Metabolic Activation: NONE, Method: PREINCUBATION): active; positive; mutagenic call (Test System: AMES SALMONELLA TYPHIMURIUM, Strain/Indicator: TA96(NRB), Metabolic Activation: RAT, LIVER, S-9, AROCLOR 1254, Method: PREINCUBATION): active; positive; mutagenic call (Test System: AMES SALMONELLA TYPHIMURIUM, Strain/Indicator: TA96(NRC), Metabolic Activation: NONE, Method: PREINCUBATION): inactive; negative; mutagenic call (Test System: AMES SALMONELLA TYPHIMURIUM, Strain/Indicator: TA96(NRC), Metabolic Activation: RAT, LIVER, S-9, AROCLOR 1254, Method: PREINCUBATION): inactive; negative; mutagenic call (Test System: AMES SALMONELLA TYPHIMURIUM, Strain/Indicator: TA96, Metabolic Activation: NONE, Method: PREINCUBATION): active; positive; mutagenic call (Test System: AMES SALMONELLA TYPHIMURIUM, Strain/Indicator: TA96, Metabolic Activation: NONE, Method: STANDARD PLATE): active; positive; mutagenic call (Test System: AMES SALMONELLA TYPHIMURIUM, Strain/Indicator: TA96, Metabolic Activation: RAT, LIVER, S-9, AROCLOR 1254, Method: PREINCUBATION): active; positive; mutagenic call (Test System: AMES SALMONELLA TYPHIMURIUM, Strain/Indicator: TA97, Metabolic Activation: NONE, Method: PREINCUBATION): active; positive; mutagenic call (Test System: AMES SALMONELLA TYPHIMURIUM, Strain/Indicator: TA97, Metabolic Activation: NONE, Method: STANDARD PLATE): active; positive; mutagenic call (Test System: AMES SALMONELLA TYPHIMURIUM, Strain/Indicator: TA97, Metabolic Activation: RAT, LIVER, S-9, AROCLOR 1254, Method: PREINCUBATION): active; positive; mutagenic call (Test System: AMES SALMONELLA TYPHIMURIUM, Strain/Indicator: TA98(NR), Metabolic Activation: NONE, Method: PREINCUBATION): active; positive; mutagenic call (Test System: AMES SALMONELLA TYPHIMURIUM, Strain/Indicator: TA98(NR), Metabolic Activation: NONE, Method: STANDARD PLATE): inactive; negative; mutagenic call (Test System: AMES SALMONELLA TYPHIMURIUM, Strain/Indicator: TA98(NR), Metabolic Activation: RAT, LIVER, S-9, AROCLOR 1254, Method: PREINCUBATION): active; positive; mutagenic call (Test System: AMES SALMONELLA TYPHIMURIUM, Strain/Indicator: TA98, Metabolic Activation: NONE, Method: PREINCUBATION): active; positive; mutagenic call [1]: active; positive; mutagenic call (Test System: AMES SALMONELLA TYPHIMURIUM, Strain/Indicator: TA98, Metabolic Activation: RAT, LIVER, S-9, AROCLOR 1254, Method: PREINCUBATION): active; positive; mutagenic call (Test System: AMES SALMONELLA TYPHIMURIUM, Strain/Indicator: TA98, Metabolic Activation: RAT, LIVER, S-9, AROCLOR 1254 OR PHENOBARBITOL, Method: STANDARD PLATE): active; positive; mutagenic call (Test System: AMES SALMONELLA TYPHIMURIUM, Strain/Indicator: TA98, Metabolic Activation: RAT, LIVER, S-9, KC500 OR PHENOBARBITAL, Method: LIQUID SUSPENSION): active; positive; mutagenic call (Test System: AMES SALMONELLA TYPHIMURIUM, Strain/Indicator: TA100(NR), Metabolic Activation: NONE, Method: PREINCUBATION): active; positive; mutagenic call (Test System: AMES SALMONELLA TYPHIMURIUM, Strain/Indicator: TA100(NR), Metabolic Activation: NONE, Method: STANDARD PLATE): inactive; negative; mutagenic call (Test System: AMES SALMONELLA TYPHIMURIUM, Strain/Indicator: TA100(NR), Metabolic Activation: RAT, LIVER, S-9, AROCLOR 1254, Method: PREINCUBATION): active; positive; mutagenic call (Test System: AMES SALMONELLA TYPHIMURIUM, Strain/Indicator: TA100, Metabolic Activation: NONE, Method: PREINCUBATION): active; positive; mutagenic call (Test System: AMES SALMONELLA TYPHIMURIUM, Strain/Indicator: TA100, Metabolic Activation: RAT, LIVER, S-9, AROCLOR 1254, Method: PREINCUBATION): active; positive; mutagenic call (Test System: AMES SALMONELLA TYPHIMURIUM, Strain/Indicator: TA100, Metabolic Activation: RAT, LIVER, S-9, AROCLOR 1254 OR PHENOBARBITOL, Method: STANDARD PLATE): active; positive; mutagenic call (Test System: AMES SALMONELLA TYPHIMURIUM, Strain/Indicator: TA100, Metabolic Activation: RAT, LIVER, S-9, KC500 OR PHENOBARBITAL, Method: LIQUID SUSPENSION): active; positive; mutagenic call (Test System: AMES SALMONELLA TYPHIMURIUM, Strain/Indicator: TA102(NRD), Metabolic Activation: NONE, Method: PREINCUBATION): active; positive; mutagenic call (Test System: AMES SALMONELLA TYPHIMURIUM, Strain/Indicator: TA102(NRD), Metabolic Activation: RAT, LIVER, S-9, AROCLOR 1254, Method: PREINCUBATION): active; positive; mutagenic call (Test System: AMES SALMONELLA TYPHIMURIUM, Strain/Indicator: TA102, Metabolic Activation: NONE, Method: PREINCUBATION): active; positive; mutagenic call (Test System: AMES SALMONELLA TYPHIMURIUM, Strain/Indicator: TA102, Metabolic Activation: NONE, Method: STANDARD PLATE): active; positive; mutagenic call (Test System: AMES SALMONELLA TYPHIMURIUM, Strain/Indicator: TA102, Metabolic Activation: RAT, LIVER, S-9, AROCLOR 1254, Method: PREINCUBATION): active; positive; mutagenic call (Test System: AMES SALMONELLA TYPHIMURIUM, Strain/Indicator: TA104, Metabolic Activation: NONE, Method: STANDARD PLATE): inactive; negative; mutagenic call (Test System: AMES SALMONELLA TYPHIMURIUM, Strain/Indicator: TA1535, Metabolic Activation: NONE, Method: STANDARD PLATE): inactive; negative; mutagenic call (Test System: AMES SALMONELLA TYPHIMURIUM, Strain/Indicator: TA1535, Metabolic Activation: RAT, LIVER, S-9, AROCLOR 1254 OR PHENOBARBITOL, Method: STANDARD PLATE): inactive; negative; mutagenic call (Test System: AMES SALMONELLA TYPHIMURIUM, Strain/Indicator: TA1537, Metabolic Activation: NONE, Method: STANDARD PLATE): inactive; negative; mutagenic call (Test System: AMES SALMONELLA TYPHIMURIUM, Strain/Indicator: TA1537, Metabolic Activation: RAT, LIVER, S-9, AROCLOR 1254 OR PHENOBARBITOL, Method: STANDARD PLATE): inactive; negative; mutagenic call (Test System: AMES SALMONELLA TYPHIMURIUM, Strain/Indicator: TA1538, Metabolic Activation: NONE, Method: STANDARD PLATE): active; positive; mutagenic call (Test System: AMES SALMONELLA TYPHIMURIUM, Strain/Indicator: TA1538, Metabolic Activation: RAT, LIVER, S-9, AROCLOR 1254 OR PHENOBARBITOL, Method: STANDARD PLATE): active; positive; mutagenic call (Test System: E. COLI, Strain/Indicator: WP2, Metabolic Activation: NONE, Method: SPOT): active; positive; mutagenic call (Test System: E. COLI, Strain/Indicator: WP2 UVRA, Metabolic Activation: NONE, Method: SPOT): active; positive; mutagenic call (Test System: E. COLI, Strain/Indicator: WP2 UVRA, Metabolic Activation: NONE, Method: STANDARD PLATE): active; positive

How did the mutagenic call [1] turn out when `ClCc1ccc2c(c1)-c1cccc3cccc-2c13` was run?
The mutagenic call was “active; positive”.

And the mutagenic call [2]?
The mutagenic call was “active; positive”.

With `Cc1c2ccccc2c(C)c2ccccc12` as the compound, how does the mutagenic call [1] read?
Its mutagenic call is “active; positive”.

What about the mutagenic call (Test System: AMES SALMONELLA TYPHIMURIUM, Strain/Indicator: TA98, Metabolic Activation: RAT, LIVER, S-9, AROCLOR 1254, Method: STANDARD PLATE) of the same compound?
Its mutagenic call is “active; positive”.

And the mutagenic call [2]?
The mutagenic call was “inactive; negative”.

What about the mutagenic call [3] of the same compound?
Its mutagenic call is “active; positive”.

How did the mutagenic call [1] turn out when `CC1(C)CC2=C(C=O)[C@@]3(C=O)C[C@@]3(C)[C@@H](O)[C@@H]2C1` was run?
The mutagenic call was “active; positive”.

And the mutagenic call [2]?
The mutagenic call was “active; positive”.

And the mutagenic call (Test System: CHINESE HAMSTER V-79, Strain/Indicator: V-79/6-THIOGUANINE (HGPRT), Metabolic Activation: NONE)?
The mutagenic call was “inactive; negative”.

For `C[C@@H]1CC2c3cc(Br)cc4c3c(cn4CC3CC3)C[C@H]2N(C)C1` (stereo partly specified), which mutagenic call [3] is on record?
The mutagenic call was “inactive; negative”.
